For data set [1], the system named is nephrotoxic nephritis (NTN) model. Description: Nephrotoxic nephritis (NTN, crescentic glomerulonephritis) in the WKY rat. The format is in vivo, Wistar-Kyoto (WKY) rat. From the text:
Figure 5 Orally administrated ERG240 reduced the severity of crescentic glomerulonephritis in rats and CIA in mice. (a) Glomerular crescents, serum creatinine, and proteinuria levels measured in vehicle and ERG240 treated rats at day 10 following induction of nephrotoxic nephritis. At least n=4 rats were used in each group. (b) Col1a1 immunofluorescence (IF) quantification (left panel), representative IF and Sirius red staining images (middle panel) and Col1a1 qRT-PCR (normalized to Hprt) 28 days following NTS injection. Original magnification, × 20, at least n=4 animals were used in each group. (c) Clinical progression of CIA measured by the Mean Arthritis Index in vehicle and ERG240-treated animals in both studies (prophylactic and therapeutic, upper panel; at least n=6 animals per group). Histological analysis of joints from representative whole paws scored for inflammation, pannus formation, cartilage damage and bone resorption (lower panel). Error bars are s.e.m. Either Mann–Whitney or Student’s t-test were used for significance. *** P<0.001, ** P<0.01, * P<0.05. Scale bars, 50 μm.
Nephrotoxic nephritis (NTN) was induced in twelve week old male Wistar-Kyoto (WKY) rats by intravenous injection of 0.1 ml of nephrotoxic serum (NTS), as previously described. Five WKY rats received ERG240 (250 mg kg^−1) orally in 0.1% carboxymethylcellulose once a day for a duration of 10 days whereas the vehicle treated WKY rats had carboxymethylcellulose only for the same period. Nine days following NTS injection, urine was collected by placing rats in metabolic cages for 24 h with free access to food and water. Proteinuria was determined by the sulphosalicylic acid test and serum creatinine by the Creatinine Assay Kit (Abcam). After 10 or 28 days of NTN induction, rats were culled and the kidney was formalin fixed and paraffin embedded for immunohistochemistry. To quantify the number of macrophages infiltrating the glomeruli, formalin-fixed paraffin-embedded kidney sections were stained with mouse monoclonal antibody to ED-1 (Serotec, Oxford, UK), followed by an HRP-labelled anti-mouse polymer development system (Dako Ltd, UK). For the evaluation of total collagen, renal tissues were stained with Sirius red. For Col1a1 immunofluorescence, sections were blocked with BSA, incubated with the Col1a1 primary antibody raised in goat (Southern Biotech, 1/40 dilution), washed and re-incubated with secondary antibody (donkey anti-goat-FITC, 1/100 dilution, Abcam). For ED-1 staining, the cellular infiltrates in 20 consecutive glomeruli were quantified using an automated image analysis software (ImagePro Plus, Media Cybernetics, Bethesda, MD) and expressed as a percentage of total glomerular cross sectional area.

Data set [2] concerns mouse bone marrow derived macrophages (BMDMs). Description: BMDM cell number (CyQuant). It counts as cell-based, C57BL/6 mouse. The settings on record: treatment for 24 h. From the text:
Figure 6 ERG240 treatment results in reduced macrophage infiltration in CIA and crescentic glomerulonephritis. (a) Inhibition of murine BMDM migration in vitro in the presence of different concentrations of ERG240 by transwell migration assay (left panel, results are presented as the average of four experiments). The drug had no effect on cell viability (right panel, results are presented as the average of three experiments). (b) IHC analysis of CIA joints for expression of F4/80. Representative images show F4/80+ cells (indicated with an arrow). F4/80+ cell quantification is shown on the right panel. (c) Representative images showing glomerular ED1 (rat CD68)-positive cells in ERG240 treated animals following NTN. Percentage of glomerular ED1-positive cell quantification is shown on the right panel. Error bars are s.e.m. […]
The migration of BMDMs was assessed using a modified Bo yden chamber methodology. […]
To determine the effect of ERG240 on the total number of BMDMs, cell s were plated onto a 96-well plate at a density of 5,000 cells per well in complete media and allowed to adhere overnight. The cells were then exposed to various drug concentrations overnight and the cell population was quantified with CyQuant Cell Proliferation kit (Life Technologies) using triplicates, in two independent experiments. For hMDMs, cell viability was determined using the alamarBlue® Assa y (Invitrogen). […]

For data set [3], the target named is T1, recombinant human BCAT2 (Homo sapiens, UniProt O15382).
T1 construct: purchased Abcam
T1 sequence (O15382 28-392): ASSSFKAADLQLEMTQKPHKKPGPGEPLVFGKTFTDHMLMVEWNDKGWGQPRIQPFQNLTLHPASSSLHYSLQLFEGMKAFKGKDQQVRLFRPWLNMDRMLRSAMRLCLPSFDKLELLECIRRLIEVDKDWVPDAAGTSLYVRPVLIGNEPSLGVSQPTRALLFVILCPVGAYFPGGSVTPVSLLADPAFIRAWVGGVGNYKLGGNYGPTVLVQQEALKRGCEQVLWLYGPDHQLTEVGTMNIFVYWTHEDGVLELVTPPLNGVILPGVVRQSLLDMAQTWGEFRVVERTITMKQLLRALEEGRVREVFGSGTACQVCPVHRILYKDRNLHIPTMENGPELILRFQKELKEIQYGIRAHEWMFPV
Description: BCAT2 aminotransferase enzymatic assay (continuous fluorometric). It counts as biochemical.

A short description of data set [4]: Water solubility. It counts as physicochemical.
The mark [5] stands for this setting: 250 mg kg^−1 orally once a day, 10 days, day 10.

Consider one molecule from paper PMC5510229, “BCAT1 controls metabolic reprogramming in activated human macrophages and is associated with inflammatory diseases” (Nature Communications, 2017).

As for `CC(=O)C(C)CCC(=O)O` (centres unmarked) [ERG240], in data set [1] (setting [5]), the glomerular crescent formation result is listed as “significantly reduced”, the proteinuria result is recorded as “significantly reduced” and the serum creatinine entry was “significantly reduced”. In addition, the interstitial fibrosis result in data set [1] (NTN model) is reported as “reduced interstitial fibrosis”. In data set [1] (day 28), the “Col1a1 mRNA levels in the renal cortex” value is “reduced”, the Sirius red staining entry is reported as “reduced Sirius red staining” and the “collagen type I alpha I quantitative immunofluorescence in nephritic kidneys” value is reported as “significant down-regulation”. Besides, the “glomerular infiltration of CD68 (ED1)-positive cells” value in data set [1] (rat, in vivo) is “significantly decreased”. Besides, in data set [2], the BMDM cell numbers entry was “did not affect cell numbers”. Besides, the “inhibition of BCAT2” value in data set [3] was “no inhibition”. The water solubility entry in data set [4] is on record as “water-soluble”.
